From patent publication US20090181910A1, “METHOD OF PREVENTION AND ALLEVIATION OF TOXICITY BY MODULATION OF IRF3” (priority 2006, published 2009)

How the values were obtained:
[1] = system: PXR/RXR ER6 binding region of CYP3A4; experiment: ChIP with anti-RXRα antibody at CYP3A4; type: cell-based, human; conditions: combinatorial treatment with rifampicin 25 μM and polyI:C, 24 hours; FIG. 10g and h
Protocol: FIG. 10: PolyI:C transcriptional repression of RXRα is critical for repression of nuclear receptor target genes. a, Wildtype, IRF3^−/− and IFNAR^−/− BMMs were stimulated with Control (DMSO), or LG268 (10 nM) with or without polyI:C (1 μg/ml). RNA was analyzed by Q-PCR. b, pCMV-RAW 264.7 cells (MT) or pCMV-Hes1-RAW 264.7 cells (Hes1) were stimulated with Control (DMSO) and 9cRA with or without polyI:C (1 μg/ml) for 24 hrs. RNA was analyzed by Q-PCR. c, RAW264.7 cells transfected with siNS or siHes1 duplex oligos were stimulated with Control (DMSO) and 9cRA (10 μM) with or without polyI:C (1 μg/ml) for 24 hours. RNA was analyzed by Q-PCR. d, pBabe-RAW 264.7 cells (Raw_MT) and pBabe-RXRα-RAW264.7 cells (Raw-RXRα) were stimulated with Control (DMSO) or LG268 (10 nM) with or without polyI:C (1 μg/ml) for 24 hrs. RNA was analyzed by Q-PCR. e, pBabe-Huh7 cells (Huh7 MT) and pBabe-RXRα-Huh7 cells (Huh7-RXRα) were stimulated with Control (DMSO) and rifampicin (25 μM) with or without polyI:C (2 μg/ml, transfected). RNA was analyzed by Q-PCR. f, pBabe-Huh7 cells (Huh7 MT) and pBabe-RXRα-Huh7 cells (Huh7_RXRα) were stimulated with Control (DMSO) and ASA (20 μg/ml) with or without polyI:C (2 μg/ml, transfected). RNA was analyzed by Q-PCR. g,h, BMMs were stimulated with rifampicin (25 μM) and polyI:C (1 μg/ml) for 24 hours. […] PCR products on gel are quantified by ImageJ, normalized to Input. […]

[2] = mouse, in vivo
[3] = system: CRBPII; experiment: RAW 264.7 Q-PCR: CRBPII; type: cell-based, murine
[4] = system: Cyp1A2; experiment: Liver RNA Q-PCR, polyI:C/APAP-treated mice: Cyp1A2; conditions: polyI:C 100 μg i.v.; FIG. 1B
[5] = system: CRBPII; experiment: BMM Q-PCR: CRBPII; type: cell-based, Murine; conditions: LG268 10 nM with polyI:C 1 μg/ml; IRF3^−/− and IFNAR^−/− BMMs; FIG. 10a
[6] = Survival following APAP treatment; type: in vivo, mice; conditions: for survival against APAP overdose: APAP 600 mg/kg
Protocol: FIG. 4: Percentage survival following APAP treatment with or without polyI:C. (A) Wildtype (n=8) fasted and were treated with 0.1% NaCl or polyI:C (100 μg) intravenous (i.v.) 24 hours prior to treatment with APAP (600 mg/kg) by intraperitoneal (i.p.) injection. (B) Wildtype and IRF3−/− (n=6-8) fasted and were treated with 0.1% NaCl or polyI:C (100 μg) intravenous (i.v.) 24 hours prior to treatment with APAP (600 mg/kg) by intraperitoneal (i.p.) injection. (C) Wildtype mice (n=6-8) fasted and were treated with 0.1% NaCl or polyI:C (100 μg) intravenous (i.v.) and PCN (75 mg/kg) intraperitoneal (i.p.) 24 hours prior to treatment with APAP (175 mg/kg) by intraperitoneal (i.p.) injection.
Age and sex matched 6-9 week old mice were used for all experiments. C57/B16 mice were obtained from Jackson Laboratory. IRF3^−/− mice were obtained from Dr. T. Taniguchi. For APAP hepatotoxicity analysis, mice fasted for […] and then administered Vehicle (0.1% NaCl) or APAP (175-600 mg/kg) by intraperitoneal injection (i.p.). For serum and histological studies, mice were sacrificed at 6-7 hours post injection and serum and liver samples were retrieved. For survival studies, mice were studied for up to 5 days. For polyI:C studies, mice were also treated with 0.1% NaCl or polyI:C (100 μg) intravenous (i.v.) 12-24 hours prior to APAP treatment. To study the effects of PCN on APAP treatment, mice were treated with PCN (75 mg/kg) or control (1% DMSO, corn oil) by intraperitoneal (i.p.) 12-24 hours prior to APAP treatment. To study the effects of ethanol (EtOH) on APAP treatment, mice were given 20% EtOH in water ad libidum for 5 days prior to APAP therapy. PolyI:C treatment for these experiments occurred at Day 3 and Day 5. Serum alanine aminotransferase (ALT) levels were determined using manufacturer's protocol (TECO Diagnostics). For H&E staining, liver samples were fixed in formalin for 48 hours. H&E stainings were done by UCLA Tissue Procurement Core Laboratory (TPCL).

Substance: polyinosinic:polycytidylic acid [polyI:C]
- RXRα present on CYP3A4 promoter (ChIP) [1]: maximal loss of RXRα in the PXR/RXR ER6 binding region of CYP3A4
- hepatotoxicity, agent alone [2]: did not cause significant hepatotoxicity
- 9cRA induction of CRBPII [3]: unable to repress 9cRA induction of CRBPII
- basal Cyp1A2 mRNA level in liver [4]: potently repressed
- LG268 induction of CRBPII [5]: repressed by polyI:C in IFNAR^−/− BMMs but not IRF3^−/− BMMs
- survival against APAP overdose ([6]; IRF3 deficient mice, FIG. 4B): did not protect from APAP overdose
- survival with APAP plus PCN ([6]; polyI:C 100 μg i.v. and PCN 75 mg/kg before APAP 175 mg/kg, FIG. 4C): prevents overdose from the combination of APAP and cytochrome P450 inducers such as PCN
- survival against APAP overdose ([6]; wildtype mice, polyI:C 100 μg i.v. 24 h prior, FIG. 4A): extremely effective at preventing death from APAP overdose
